Results reported in PubChem BioAssay (NCI).
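GI50: concentration for 50% inhibition of growth. TGI: total growth inhibition.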

How the values were obtained:
Test in all cases: NCI-60 cell line screen, 384-well format
ACHN renal = tested on: ACHN renal
CAKI-1 renal = tested on: CAKI-1 renal
DU-145 prostate = tested on: DU-145 prostate
HT29 colon = tested on: HT29 colon
MDA-MB-468 breast = tested on: MDA-MB-468 breast
NCI-H226 lung = tested on: NCI-H226 lung
RPMI-8226 leukemia = tested on: RPMI-8226 leukemia
SF-295 CNS = tested on: SF-295 CNS
SK-MEL-5 melanoma = tested on: SK-MEL-5 melanoma
SK-OV-3 ovarian = tested on: SK-OV-3 ovarian
SNB-75 CNS = tested on: SNB-75 CNS
T-47D breast = tested on: T-47D breast
TK-10 renal = tested on: TK-10 renal

COCc1c(-c2cc3cc(C)cc(OC)c3s2)c2c(N)ncnn2c1CN1CCNC(=O)C1
GI50 (ACHN renal): 6.15 µM
TGI (ACHN renal): > 100 µM
GI50 (CAKI-1 renal): 3.41 µM
TGI (CAKI-1 renal): 15.1 µM
GI50 (DU-145 prostate): 6.79 µM
TGI (DU-145 prostate): > 100 µM
GI50 (HT29 colon): 12 µM
TGI (HT29 colon): > 100 µM
GI50 (MDA-MB-468 breast): 2.01 µM
TGI (MDA-MB-468 breast): 7.39 µM
GI50 (NCI-H226 lung): 1.26 µM
TGI (NCI-H226 lung): 21.7 µM
GI50 (RPMI-8226 leukemia): 1.87 µM
TGI (RPMI-8226 leukemia): 7.59 µM
GI50 (SF-295 CNS): 18.2 µM
TGI (SF-295 CNS): > 100 µM
GI50 (SK-MEL-5 melanoma): 7.29 µM
TGI (SK-MEL-5 melanoma): 31.3 µM
GI50 (SK-OV-3 ovarian): 2.4 µM
TGI (SK-OV-3 ovarian): 8.99 µM
GI50 (SNB-75 CNS): 1.63 µM
TGI (SNB-75 CNS): 20.5 µM
GI50 (T-47D breast): 15.1 µM
TGI (T-47D breast): > 94.7 µM
GI50 (TK-10 renal): 7.97 µM
TGI (TK-10 renal): 70.3 µM
